Measured values as given in the supplement of paper PMC10307832.

Key:
Experiment in all cases: relative viability (nuclei count vs DMSO), 5 days (fraction); higher = more cells survive
[1] = compound: C1/C(=C\C2=CC=CS2)/C(=O)/C(=C/C3=CC=CS3)/C1 + C[C@]1(O)C[C@@H](c2nc(-c3ccc4ccc(-c5ccccc5)nc4c3)c3c(N)nccn32)C1 [Linsitinib] (partner 1 µM)
Method in brief: (§1)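 A single step with final 0.05% Triton X-100, 1% formaldehyde and 1 ug/ml Hoechst fixed the cells and stained nuclei 5 days after treatment. Lung cancer cell lines in 1536-well plates had been treated by pin tool the day after seeding with one drug alone or a fixed anchor-drug dose plus five library-drug doses (not always all listed) in √10 steps, and nuclei were counted on 4× images. Relative viability is the ratio of nuclei in treated wells to nuclei in vehicle wells, taken as the median of duplicate plates.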

[2] = compound: C1/C(=C\C2=CC=CS2)/C(=O)/C(=C/C3=CC=CS3)/C1 + N=C(N)NC(=N)NCCc1ccccc1 [Phenformin] (partner 250 µM)
Method in brief: as §1

[3] = compound: C1/C(=C\C2=CC=CS2)/C(=O)/C(=C/C3=CC=CS3)/C1 + CC(C)C[C@H](NC(=O)[C@H](Cc1ccccc1)NC(=O)c1cnccn1)B(O)O [Bortezomib] (partner 0.002 µM)
Method in brief: as §1

Lestaurtinib + Dasatinib = compound: C[C@]12O[C@H](C[C@]1(O)CO)n1c3ccccc3c3c4c(c5c6ccccc6n2c5c31)CNC4=O [Lestaurtinib] + Cc1nc(Nc2ncc(C(=O)Nc3c(C)cccc3Cl)s2)cc(N2CCN(CCO)CC2)n1 [Dasatinib] (partner 0.075 µM)
Method in brief: as §1

In the case of A549, the relative viability ([1]; first compound 0.2 µM) is reported as 0.636, the relative viability ([1]; first compound 0.6325 µM) is reported as 0.556 and the relative viability ([1]; first compound 2 µM) is reported as 0.628. For the same cell line, the relative viability ([1]; first compound 6.325 µM) was 0.516, the relative viability ([1]; first compound 20 µM) was 0.567 and the relative viability ([2]; first compound 0.2 µM) was 0.208. It also gave a relative viability ([2]; first compound 0.6325 µM) of 0.196, a relative viability ([2]; first compound 2 µM) of 0.154 and a relative viability ([2]; first compound 20 µM) of 0.17.

Calu-6 gave a relative viability ([3]; first compound 0.2 µM) of 1.02, a relative viability ([3]; first compound 0.6325 µM) of 1.02 and a relative viability ([3]; first compound 2 µM) of 1. It also gave a relative viability ([3]; first compound 6.325 µM) of 0.837, a relative viability ([3]; first compound 20 µM) of 1.06 and a relative viability ([1]; first compound 0.2 µM) of 1.05. It also gave a relative viability ([1]; first compound 0.6325 µM) of 1.05, a relative viability ([1]; first compound 2 µM) of 0.94 and a relative viability ([1]; first compound 6.325 µM) of 0.921. It also gave a relative viability ([1]; first compound 20 µM) of 0.835.

In the case of NCI-H1623, the relative viability ([2]; first compound 0.2 µM) is reported as 0.644, the relative viability ([2]; first compound 0.6325 µM) is reported as 0.577 and the relative viability ([2]; first compound 2 µM) is reported as 0.502. For the same cell line, the relative viability ([2]; first compound 6.325 µM) was 0.599, the relative viability ([2]; first compound 20 µM) was 0.59 and the relative viability (Lestaurtinib + Dasatinib; first compound 0.005 µM) was 0.493. For the same cell line, the relative viability (Lestaurtinib + Dasatinib; first compound 0.01581 µM) was 0.576, the relative viability (Lestaurtinib + Dasatinib; first compound 0.05 µM) was 0.584 and the relative viability (Lestaurtinib + Dasatinib; first compound 0.1581 µM) was 0.513. It also gave a relative viability (Lestaurtinib + Dasatinib; first compound 0.5 µM) of 0.497.

HCC-44 gave a relative viability ([3]; first compound 0.2 µM) of 0.911, a relative viability ([3]; first compound 0.6325 µM) of 0.851 and a relative viability ([3]; first compound 2 µM) of 0.844. It also gave a relative viability ([3]; first compound 6.325 µM) of 0.801, a relative viability ([3]; first compound 20 µM) of 0.923 and a relative viability ([1]; first compound 0.2 µM) of 0.633. It also gave a relative viability ([1]; first compound 0.6325 µM) of 0.748, a relative viability ([1]; first compound 2 µM) of 0.693 and a relative viability ([1]; first compound 6.325 µM) of 0.592. For the same cell line, the relative viability ([1]; first compound 20 µM) was 0.655, the relative viability ([2]; first compound 0.2 µM) was 0.161 and the relative viability ([2]; first compound 0.6325 µM) was 0.27. It also gave a relative viability ([2]; first compound 2 µM) of 0.278, a relative viability ([2]; first compound 6.325 µM) of 0.21 and a relative viability ([2]; first compound 20 µM) of 0.161.

NCI-H1944 was tested, and the relative viability ([1]; first compound 0.2 µM) was 1.32, the relative viability ([1]; first compound 0.6325 µM) was 1.09 and the relative viability ([1]; first compound 2 µM) was 1.23. It also gave a relative viability ([1]; first compound 6.325 µM) of 1.17, a relative viability ([1]; first compound 20 µM) of 1.01 and a relative viability ([2]; first compound 0.2 µM) of 0.232. For the same cell line, the relative viability ([2]; first compound 0.6325 µM) was 0.207, the relative viability ([2]; first compound 2 µM) was 0.2 and the relative viability ([2]; first compound 6.325 µM) was 0.18. For the same cell line, the relative viability ([2]; first compound 20 µM) was 0.182, the relative viability (Lestaurtinib + Dasatinib; first compound 0.005 µM) was 0.207 and the relative viability (Lestaurtinib + Dasatinib; first compound 0.01581 µM) was 0.23. The relative viability (Lestaurtinib + Dasatinib; first compound 0.05 µM) was 0.176, the relative viability (Lestaurtinib + Dasatinib; first compound 0.1581 µM) was 0.137 and the relative viability (Lestaurtinib + Dasatinib; first compound 0.5 µM) was 0.147.

NCI-H2342 gave a relative viability ([2]; first compound 0.2 µM) of 0.535, a relative viability ([2]; first compound 0.6325 µM) of 0.63 and a relative viability ([2]; first compound 2 µM) of 0.689. It also gave a relative viability ([2]; first compound 6.325 µM) of 0.524, a relative viability ([2]; first compound 20 µM) of 0.519 and a relative viability (Lestaurtinib + Dasatinib; first compound 0.005 µM) of 0.328. For the same cell line, the relative viability (Lestaurtinib + Dasatinib; first compound 0.01581 µM) was 0.314, the relative viability (Lestaurtinib + Dasatinib; first compound 0.05 µM) was 0.264 and the relative viability (Lestaurtinib + Dasatinib; first compound 0.1581 µM) was 0.313. It also gave a relative viability (Lestaurtinib + Dasatinib; first compound 0.5 µM) of 0.259.
